Data published in the NIST ThermoML archive (doi:10.1021/acs.jced.9b00185).

Assays:
[1] = excess molar enthalpy (molar enthalpy of mixing); xn = mol fraction of the nth substance listed; conditions: 298.15 K, 98.8 kPa, Liquid, Calvet calorimetry
[2] = xn = mol fraction of the nth substance listed; conditions: 298.15 K, 98.8 kPa, Liquid, Vibrating tube method
[3] = 298.15 K; 101.33 kPa; Liquid; Vibrating tube method
[4] = refractive index (Na D-line) (dimensionless); conditions: 298.15 K; 101.33 kPa; Liquid; Standard Abbe refractometry

CCCCCCCCCC(=O)OC [methyl decanoate] + CCCCCC
[1]
Conditions	excess molar enthalpy [kcal/mol]
x1 = 0.0479	0.0382
x1 = 0.0943	0.0636
x1 = 0.1448	0.081
x1 = 0.1927	0.105
x1 = 0.2477	0.114
x1 = 0.3077	0.123
x1 = 0.3542	0.126
x1 = 0.4059	0.125
x1 = 0.4574	0.12
x1 = 0.5055	0.113
x1 = 0.5557	0.107
x1 = 0.6037	0.0985
x1 = 0.6531	0.088
x1 = 0.7032	0.077
x1 = 0.752	0.0679
x1 = 0.8028	0.0543
x1 = 0.8496	0.0399
x1 = 0.9014	0.0277
x1 = 0.9328	0.0174
x1 = 1	0

CCCCCCCCCCCCCCCC [hexadecane] + CCCCCCCCCC(=O)OC
x2 = 0
Conditions	excess molar enthalpy [kcal/mol]	mass density [kg/m3]
[1]	0	–
[2]	–	769.8

CCCCCCCCCCCCCC [tetradecane]
Conditions	mass density [kg/m3]	refractive index
[3]	759.17	–
[4]	–	1.4273

CCCCCCCCCCCC [dodecane] + CCCCCCCCCC(=O)OC
x2 = 0
Conditions	excess molar enthalpy [kcal/mol]	mass density [kg/m3]
[1]	0	–
[2]	–	745.2

CCCCCCCCCC [decane] + CCCCCCCCCC(=O)OC
Conditions	excess molar enthalpy [kcal/mol]
[1], x2 = 0	0

CCCCCCCCCCCC [dodecane]
Conditions	mass density [kg/m3]	refractive index
[3]	745.2	–
[4]	–	1.4197

CCCCCCCCCC(=O)OC [methyl decanoate] + CCCCCCCCCCCCCC
Conditions	excess molar enthalpy, [1] [kcal/mol]	mass density, [2] [kg/m3]
x1 = 0.0498	–	763.35
x1 = 0.0633	0.0497	–
x1 = 0.0922	0.0712	–
x1 = 0.1001	–	767.69
x1 = 0.1502	–	772.18
x1 = 0.1577	0.108	–
x1 = 0.1964	0.126	–
x1 = 0.1998	–	776.73
x1 = 0.2496	–	781.41
x1 = 0.258	0.152	–
x1 = 0.2999	–	786.24
x1 = 0.3045	0.163	–
x1 = 0.3501	–	791.21
x1 = 0.3597	0.176	–
x1 = 0.3944	0.184	–
x1 = 0.4001	–	796.26
x1 = 0.4492	0.19	–
x1 = 0.4498	–	801.43
x1 = 0.5001	–	806.77
x1 = 0.5076	0.19	–
x1 = 0.5498	–	812.19
x1 = 0.5535	0.185	–
x1 = 0.5997	–	817.76
x1 = 0.607	0.173	–
x1 = 0.6499	–	823.51
x1 = 0.6586	0.161	–
x1 = 0.6999	–	829.37
x1 = 0.7089	0.146	–
x1 = 0.7501	–	835.45
x1 = 0.7542	0.131	–
x1 = 0.799	–	841.48
x1 = 0.8009	0.115	–
x1 = 0.8477	0.0946	–
x1 = 0.849	–	847.78
x1 = 0.8974	0.0676	–
x1 = 0.8992	–	854.34
x1 = 0.9455	0.0423	–
x1 = 0.95	–	861.12
x1 = 1	0	868.02

CCCCCCCCCC(=O)OC [methyl decanoate] + CCCCCCCCCCCCCCCC
Conditions	excess molar enthalpy, [1] [kcal/mol]	mass density, [2] [kg/m3]
x1 = 0.0499	–	773.1
x1 = 0.0636	0.0471	–
x1 = 0.0998	–	776.6
x1 = 0.1131	0.081	–
x1 = 0.1501	–	780.26
x1 = 0.1619	0.107	–
x1 = 0.2	–	783.98
x1 = 0.201	0.129	–
x1 = 0.2497	–	787.88
x1 = 0.2575	0.153	–
x1 = 0.3006	–	791.99
x1 = 0.3056	0.17	–
x1 = 0.3497	–	796.11
x1 = 0.3584	0.184	–
x1 = 0.398	0.195	–
x1 = 0.4001	–	800.47
x1 = 0.4494	0.198	–
x1 = 0.45	–	804.97
x1 = 0.4955	0.198	–
x1 = 0.4997	–	809.64
x1 = 0.5479	0.195	–
x1 = 0.5502	–	814.55
x1 = 0.5983	0.188	–
x1 = 0.5995	–	819.57
x1 = 0.6494	0.177	–
x1 = 0.6501	–	824.85
x1 = 0.6996	–	830.28
x1 = 0.7034	0.163	–
x1 = 0.7497	–	835.95
x1 = 0.7512	0.145	–
x1 = 0.7997	–	841.91
x1 = 0.8015	0.126	–
x1 = 0.8489	–	847.93
x1 = 0.8493	0.102	–
x1 = 0.8992	–	854.43
x1 = 0.8995	0.0707	–
x1 = 0.9494	–	861.11
x1 = 0.9495	0.0366	–
x1 = 1	0	868.02

CCCCCCCCCC [decane]
Conditions	mass density [kg/m3]	refractive index
[3]	726.61	–
[4]	–	1.41

CCCCCCCC [octane] + CCCCCCCCCC(=O)OC
Conditions	excess molar enthalpy [kcal/mol]
[1], x2 = 0	0

CCCCCCCC [octane]
Conditions	mass density [kg/m3]	refractive index
[3]	698.45	–
[4]	–	1.3955

CCCCCC [hexane]
Conditions	mass density [kg/m3]	refractive index
[3]	654.81	–
[4]	–	1.3725

CCCCCC [hexane] + CCCCCCCCCC(=O)OC
Conditions	excess molar enthalpy [kcal/mol]
[1], x2 = 0	0

CCCCCCCCCC(=O)OC [methyl decanoate] + CCCCCCCCCCCC
Conditions	excess molar enthalpy, [1] [kcal/mol]	mass density, [2] [kg/m3]
x1 = 0.05	–	750.68
x1 = 0.0512	0.0394	–
x1 = 0.1	–	756.24
x1 = 0.1129	0.076	–
x1 = 0.1503	–	761.93
x1 = 0.1513	0.101	–
x1 = 0.1998	–	767.59
x1 = 0.2021	0.119	–
x1 = 0.25	–	773.38
x1 = 0.2513	0.141	–
x1 = 0.299	0.152	–
x1 = 0.3001	–	779.28
x1 = 0.3506	–	785.27
x1 = 0.3572	0.163	–
x1 = 0.3996	–	791.16
x1 = 0.4051	0.169	–
x1 = 0.4473	0.172	–
x1 = 0.4497	–	797.22
x1 = 0.5002	–	803.37
x1 = 0.5033	0.172	–
x1 = 0.55	–	809.54
x1 = 0.5502	0.169	–
x1 = 0.5952	0.163	–
x1 = 0.5998	–	815.74
x1 = 0.6499	–	822.04
x1 = 0.652	0.15	–
x1 = 0.6994	–	828.35
x1 = 0.7089	0.132	–
x1 = 0.7495	–	834.79
x1 = 0.7524	0.117	–
x1 = 0.7996	–	841.3
x1 = 0.8098	0.0954	–
x1 = 0.8493	–	847.78
x1 = 0.8525	0.0731	–
x1 = 0.8997	–	854.45
x1 = 0.9019	0.0485	–
x1 = 0.9496	–	861.18
x1 = 0.9586	0.0196	–
x1 = 1	0	868.02

CCCCCCCCCC(=O)OC [methyl decanoate]
Conditions	mass density [kg/m3]	refractive index
[3]	868.02	–
[4]	–	1.4235

CCCCCCCCCC(=O)OC [methyl decanoate] + CCCCCCCCCC
[1]
Conditions	excess molar enthalpy [kcal/mol]
x1 = 0.0469	0.033
x1 = 0.0985	0.0662
x1 = 0.1523	0.0915
x1 = 0.2018	0.115
x1 = 0.2537	0.133
x1 = 0.3062	0.15
x1 = 0.3563	0.156
x1 = 0.4008	0.16
x1 = 0.4543	0.162
x1 = 0.5058	0.159
x1 = 0.5498	0.156
x1 = 0.6017	0.146
x1 = 0.6524	0.133
x1 = 0.7078	0.114
x1 = 0.7597	0.0994
x1 = 0.8086	0.0813
x1 = 0.8592	0.0607
x1 = 0.9058	0.0406
x1 = 0.9566	0.0151
x1 = 1	0

CCCCCCCCCCCCCCCC [hexadecane]
Conditions	mass density [kg/m3]	refractive index
[3]	769.8	–
[4]	–	1.4323

CCCCCCCCCCCCCC [tetradecane] + CCCCCCCCCC(=O)OC
x2 = 0
Conditions	excess molar enthalpy [kcal/mol]	mass density [kg/m3]
[1]	0	–
[2]	–	759.17

CCCCCCCCCC(=O)OC [methyl decanoate] + CCCCCCCC
[1]
Conditions	excess molar enthalpy [kcal/mol]
x1 = 0.0551	0.0394
x1 = 0.1035	0.0691
x1 = 0.154	0.0949
x1 = 0.2078	0.113
x1 = 0.2514	0.127
x1 = 0.3088	0.137
x1 = 0.3584	0.143
x1 = 0.399	0.147
x1 = 0.4514	0.146
x1 = 0.5051	0.143
x1 = 0.5555	0.137
x1 = 0.599	0.131
x1 = 0.657	0.115
x1 = 0.7066	0.103
x1 = 0.7511	0.0913
x1 = 0.8069	0.0712
x1 = 0.8577	0.0533
x1 = 0.9098	0.0351
x1 = 0.9561	0.0167
x1 = 1	0
